# What was measured:
# P2X purinoceptor 1 = target: T1, P2X purinoceptor 1 (Homo sapiens, UniProt P51575); test: Antagonist activity at P2X1 receptor (unknown origin)
# T1 sequence (P51575 whole entry): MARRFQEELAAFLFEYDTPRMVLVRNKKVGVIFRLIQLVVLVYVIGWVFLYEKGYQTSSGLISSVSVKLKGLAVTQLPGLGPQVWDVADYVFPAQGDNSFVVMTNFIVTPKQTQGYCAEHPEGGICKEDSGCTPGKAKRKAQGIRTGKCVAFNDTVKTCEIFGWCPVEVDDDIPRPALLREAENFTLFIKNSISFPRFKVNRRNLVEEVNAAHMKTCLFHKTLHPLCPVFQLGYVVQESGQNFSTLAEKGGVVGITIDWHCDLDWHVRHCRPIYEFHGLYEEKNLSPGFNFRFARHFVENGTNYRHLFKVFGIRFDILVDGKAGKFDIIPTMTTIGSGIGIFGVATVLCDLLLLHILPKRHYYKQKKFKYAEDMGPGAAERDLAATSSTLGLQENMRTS
# Cytochrome P450 1A2 = target: T2, Cytochrome P450 1A2 (Homo sapiens, UniProt P05177); test: Inhibition of CYP1A2 (unknown origin); format: ADME
# T2 sequence (P05177 whole entry): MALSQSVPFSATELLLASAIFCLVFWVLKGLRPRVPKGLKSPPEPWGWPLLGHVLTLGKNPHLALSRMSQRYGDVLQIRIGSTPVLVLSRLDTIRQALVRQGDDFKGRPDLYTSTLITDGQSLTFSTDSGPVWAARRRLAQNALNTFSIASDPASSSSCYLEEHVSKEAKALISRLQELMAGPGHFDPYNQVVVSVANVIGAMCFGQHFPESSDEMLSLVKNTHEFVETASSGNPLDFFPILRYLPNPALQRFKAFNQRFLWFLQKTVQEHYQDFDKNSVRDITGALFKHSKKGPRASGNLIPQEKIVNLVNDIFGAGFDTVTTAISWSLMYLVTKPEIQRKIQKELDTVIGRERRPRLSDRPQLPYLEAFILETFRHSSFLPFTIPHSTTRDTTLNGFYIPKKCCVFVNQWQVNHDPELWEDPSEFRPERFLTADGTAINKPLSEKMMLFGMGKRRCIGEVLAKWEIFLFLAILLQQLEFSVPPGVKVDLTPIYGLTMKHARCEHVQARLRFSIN
# [1] = Oral bioavailability in rat at 3 mg/kg; format: ADME, organism-based; conditions: in vivo
# [2] = Protein binding in rat plasma assessed as unbound fraction at 3 mg/kg, iv; format: ADME, organism-based
# [3] = Ratio of free plasma concentration in rat measured after 3 hrs to IC50 of P2X3 (unknown origin); format: ADME
smiles,measurement,setting,value
C[C@@H](Cn1c(=O)[nH]/c(=N\c2ccc(Oc3ccccn3)cc2)n(Cc2ccc(Cl)cc2)c1=O)C(=O)O,IC50,P2X purinoceptor 1,> 30 µM
same,IC50,Cytochrome P450 1A2,> 20 µM
same,bioavailability,[1],76.8%
same,fraction unbound,[2],0.01
same,Ratio,[3],1.57

# From ChEMBL document CHEMBL5030545, “Discovery of clinical candidate Sivopixant (S-600918): Lead optimization of dioxotriazine derivatives as selective P2X3 receptor antagonists” (Bioorg Med Chem Lett, 2021)
